Experiment [1] relates to RAW264.7 macrophages stimulated with treated P. aeruginosa. Nature of the experiment: Silent killing: stimulation of macrophages with nonviable bacteria (TNF-α ELISA). It is filed as cell-based. Conditions: RAW264.7 2 h; for macrophage activation (TNF-α) by peptide-treated P. aeruginosa compared to viable untreated bacteria: bacteria 1 × 10^6 CFU/mL treated with 20 μM peptide 1 h at 37 °C, three independent experiments. Here is the method:
Figure 7 (A) Determination of macrophage activation in response to viable and nonviable bacteria. P. aeruginosa was treated with gentamicin, heat treatment, CATH-2 (control), CPA, murepavadin, MHM, PMB, or PMBN (20 μM of each) and subsequently added to RAW264.7 macrophages. Production of TNF-α was measured using ELISA after 2 h of treatment. (B) Viability of P. aeruginosa after treatment was checked by plating on TSA plates. Data is plotted as the mean ± SEM of three independent experiments. Significant differences were determined by ordinary one-way ANOVA (Tukey’s multiple comparison test).
RAW264.7 cells were seeded (7.5 × 10^4 cells/well) as described above. P. aeruginosa (diluted to 1 × 10^6 CFU/mL in DMEM) was treated separately with heat (1 h at 90 °C), 1 mg/mL gentamicin (1 h at 37 °C), 20 μM CPA (1 h at 37 °C), 20 μM PMB (1 h at 37 °C), 20 μM murepavadin (1 h at 37 °C), 20 μM MHM (1 h at 37 °C), 20 μM CATH-2 (1 h at 37 °C), and DMEM only (untreated sample) (1 h at 4 °C). After treatment, the bacteria were added to the RAW264.7 cells for 2 h of incubation at 37 °C. After that, TNF-α production was determined in the supernatant by ELISA.
In general terms: In an ELISA, binding on a coated surface is turned into a signal by an enzyme label.

In experiment [2] the test system is E. coli O111:B4 LPS stimulated RAW264.7 macrophages. The experiment in a line: IL-10 release ELISA in LPS stimulated macrophages. It counts as cell-based. Particulars: 20 ng/mL E. coli O111:B4 LPS, 24 h; for concentration inhibiting IL-10 release: unable to inhibit up to highest concentration. Here is the method:
(§1) Figure 4 Peptides modulation of cytokine expression in RAW264.7 cells stimulated with LPS. RAW macrophages were stimulated with 20 ng/mL E. coli LPS in the presence of different concentrations of peptide antibiotics. (A) TNF-α and (B) IL-10 release was measured by ELISA in duplicates. Shown are the mean ± SEM of three independent experiments.
(§2) RAW264.7 cells were seeded (5 × 10^4 cells/well) in a 96-well plate and left at 37 °C for overnight adherence. Then, cells were stimulated with […] types of LPS: 20 ng/mL LPS originating from E. coli O111:B4 (LPS-EB, InvivoGen), 50 ng/mL LPS from P. aeruginosa (PA-10 LPS, Sigma -Aldrich), and 5 ng/mL LPS from E. coli K-12 (LPS-EK, InvivoGen) in the presence of 0–5 μM peptides in DMEM for 24 h. After incubation, the nitrite content (corresponding to nitric oxide produced but quickly oxidized in watery solutions to nitrite) in the supernatant was measured using the Griess assay.[28]
(§3) A sandwich ELISA was used to measure TNF-α and IL-10 concentrations in the supernatant of the same treatment (24 h) used for nitrite measurement, using ELISA Duoset kits (R&D systems, Minneapolis, MN) according to the manufacturer’s protocol.

The test system of another experiment is E. coli O111:B4 LPS. The experiment in a line: Isothermal titration calorimetry (ITC) of LPS binding. Conditions: 30 μM peptide, 200 μM LPS in 50% PBS, 37 °C, representative of two measurements. Here is the method: Figure 6 (A) Binding profile of LPS and the peptides using ITC. Binding signatures (ΔG, ΔH. and −TΔS) plotted for binding events of LPS with peptides. (B) Spectra of the interaction between LPS and peptides. Murepavadin, PMB, MHM, PMBN, and CPA (30 μM) were titrated against 200 μM E. coli O111:B4 LPS, and heat rates were recorded. Shown is a representative of two measurements.
ITC measurements were performed in a low volume NanoITC (TA Instruments-Waters LLC, New Castle, DE). Two hundred micromolar LPS (from E. coli O111:B4) was prepared in 50% PBS. Peptides of 30 μM concentration were prepared in identical buffer. Three hundred microliters of the peptide solution was added to the chamber (chamber volume is 169 μL, so the rest of the volume flows out and rests around the chamber), and 50 μL of LPS was added to the syringe. At 37 °C, 2 μL of LPS solution was injected into the chamber every 300 s, except the first injection, which consists of 0.96 μL. The experiments were performed at 37 °C while stirring at 300 rpm. The data was analyzed with the NanoAnalyze Software (TA Instruments, Asse, Belgium).

The test system of experiment [3] is Pseudomonas aeruginosa (clinical isolate). It is filed as cell-based. Particulars: 3 h. As to the method: (§4) Figure 2 Determination of MBC values for (A) E. coli and (B) P. aeruginosa. Surviving bacterial colonies were detected after incubation with tested peptides for 3 h in MHB.
(§5) Bacterial strains used in this study were clinical isolates of Escherichia coli and Pseudomonas aeruginosa provided by Utrecht University Medical Center, Department of Medical Microbiology, Utrecht, The Netherlands. Both strains were cultured in Mueller Hinton broth (MHB) (Millipore, Sigma-Aldrich).
(§6) Logarithmic growth phase of an o/n bacterial culture was obtained by diluting it 1:100 in MHB and then incubating it for 3 h at 37 °C while shaking. After that, the OD620 of the bacterial suspension was measured and the bacterial solution was diluted to 2 × 10^6 colony forming units/mL (CFU/mL). Bacteria and peptides in MHB were mixed 1:1 (v/v) and incubated for 3 h at 37 °C in a polypropylene round-bottom 96 well-plate (Corning Costar, Glendale, AZ). Subsequently, 10-fold dilutions were made and plated out on Tryptone Soy Agar (TSA) plates and incubated for 24 h at 37 °C to count colonies.

Experiment [4] concerns Escherichia coli (clinical isolate). It counts as cell-based. Particulars: clinical isolate, 3 h. As to the method:
as §4, §5, §6

For experiment [5], the system named is E. coli O111:B4 LPS stimulated RAW264.7 macrophages. Nature of the experiment: TNF-α release ELISA in LPS stimulated macrophages. It counts as cell-based. Conditions: 20 ng/mL E. coli O111:B4 LPS, 24 h; for concentration inhibiting TNF-α release: unable to inhibit up to highest concentration. Here is the method:
as §1, §2, §3

Experiment [6] has as its system P. aeruginosa 10 LPS stimulated RAW264.7 macrophages. Nature of the experiment: Nitric oxide inhibition assay (Griess), P. aeruginosa 10 LPS. Conditions: smooth P. aeruginosa 10 LPS 50 ng/mL; 0–5 μM peptide; 24 h. It is filed as cell-based. Here is the method:
(§7) Figure 3 Nitric oxide inhibition in LPS stimulated RAW264.7 by peptide antibiotics. RAW264.7 cells were stimulated with smooth type LPSs (A) E. coli O111:B4 LPS and (B) P. aeruginosa LPS and rough type LPS (C) E. coli K-12 LPS in the presence of different concentrations of peptides: CPA, murepavadin, MHM, PMB, and PMBN. NO production was measured by Griess assay. Shown are the mean ± SEM of three independent experiments. (D) Schematic diagram of the general structure of lipopolysaccharides. It consists of three main subunits: lipid A, the core region, and the O-antigen. Lipid A and the core-region form rough (R)-type LPS. Lipid A, the core-region, and the O-antigen together form smooth (S)-type LPS.
as §2
(In general: The Griess reaction detects nitrite, a stable product of nitric oxide.)

The subject of experiment [7] is E. coli O111:B4 LPS stimulated RAW264.7 macrophages. Nature of the experiment: Nitric oxide inhibition assay (Griess), E. coli O111:B4 LPS. It is filed as cell-based. Conditions: smooth E. coli O111:B4 LPS 20 ng/mL; 0–5 μM peptide; 24 h. As to the method:
as §7, §2

Experiment [8] has as its system E. coli K-12 LPS stimulated RAW264.7 macrophages. Nature of the experiment: Nitric oxide inhibition assay (Griess), E. coli K-12 LPS. It counts as cell-based. Particulars: rough E. coli K-12 LPS 5 ng/mL; 0–5 μM peptide; 24 h. Here is the method:
as §7, §2

Where a SMILES comes first, the peptide text is derived from it. Bridges are numbered along the chain shown (N, C = ends). [ ]: non-standard residue; d: D form. Tle = CC(C)(C)[C@H](N)C(=O)O; dDab = NCC[C@@H](N)C(=O)O; hSer = N[C@@H](CCO)C(=O)O; Orn = NCCC[C@H](N)C(=O)O; Dab = NCC[C@H](N)C(=O)O

For `CNC(C)C1CCC(N)C(OC2C(N)CC(N)C(OC3OCC(C)(O)C(NC)C3O)C2O)O1` (centres unmarked) [Gentamicin], the “macrophage activation (TNF-α) by gentamicin-killed P. aeruginosa compared to viable untreated bacteria” value in [1] (bacteria treated with 1 mg/mL gentamicin 1 h at 37 °C) is given as “almost same level as viable untreated bacteria”.
As usually defined, the Kd is the equilibrium constant for the complex coming apart. Higher therefore signals weaker binding. `CC(C)[C@@H]1NC(=O)[C@@H]2CCCN2C(=O)[C@@H](C)NC(=O)[C@H](CO)NC(=O)[C@H](C)NC(=O)[C@H](C(C)(C)C)NC(=O)[C@H](CCO)NC(=O)[C@H](Cc2c[nH]c3ccccc23)NC(=O)[C@H](CCO)NC(=O)[C@@H](CCN)NC(=O)[C@H](CCC(=O)O)NC(=O)[C@H](CCN)NC(=O)[C@H](Cc2ccc(O)cc2)NC(=O)[C@H]([C@@H](C)O)NC1=O` [MHM] (cyclo(VTY[Dab]E[dDab][hSer]W[hSer][Tle]AS[dA]P)): the “concentration inhibiting IL-10 release” value in experiment [2] was more than 5 µM. Moreover, binding in the experiment on E. coli O111:B4 LPS was characterised by a dissociation constant (Kd) of 0.97 µM. In experiment [3], the “MBC (complete killing) against P. aeruginosa” value (“MBC … against P. aeruginosa” below) is more than 20 µM. Also, the “MBC (complete killing) against E. coli” value in [4] is more than 20 µM. Besides, in experiment [5], the “concentration inhibiting TNF-α release” value is more than 5 µM. Also, the “macrophage activation (TNF-α) by peptide-treated P. aeruginosa compared to viable untreated bacteria” value in [1] is given as “no significant reduction in macrophage activation”.
Regarding `CC(C)C[C@@H]1NC(=O)[C@@H](Cc2ccccc2)NC(=O)[C@H](CCN)NC(=O)[C@@H](NC(=O)[C@H](CCN)NC(=O)[C@@H](N)[C@@H](C)O)CCNC(=O)[C@H]([C@@H](C)O)NC(=O)[C@H](CCN)NC(=O)[C@H](CCN)NC1=O` [PMBN, polymyxin B nonapeptide] (H-T[Dab][Dab][Dab][dF]L[Dab][Dab]T; lactam 3-C (inferred); N-terminus assumed), the “inhibition of LPS-induced nitric oxide production (in words)” value in experiment [6] and in experiment [7] was “partially inhibited nitric oxide production only at 5 μM” each time. Also, the “inhibition of IL-10 release (in words)” value in experiment [2] is recorded as “inhibit IL-10 release dose-dependently but at concentrations much higher than those required for CPA or PMB”. Further, the affinity in the experiment with E. coli O111:B4 LPS, expressed as Kd, was 3.8 µM. For the same compound, the “MBC … against P. aeruginosa” value in experiment [3] was more than 20 µM. In addition, the “MBC (complete killing) against E. coli” value in [4] is more than 20 µM.
Consider `CC[C@H](C)[C@@H]1NC(=O)[C@H](Cc2c[nH]c3ccccc23)NC(=O)[C@H]([C@@H](C)O)NC(=O)[C@@H]2CCCN2C(=O)[C@H]2CCCN2C(=O)[C@H](CO)NC(=O)[C@H](C)NC(=O)[C@H](CCN)NC(=O)[C@H](CCN)NC(=O)[C@H](Cc2c[nH]c3ccccc23)NC(=O)[C@H](CCN)NC(=O)[C@@H](CCN)NC(=O)[C@H](CCCN)NC(=O)[C@H](CCN)NC1=O` [murepavadin] (cyclo(TWI[Dab][Orn][dDab][Dab]W[Dab][Dab]AS[dP]P)), for which, in experiment [2], the “concentration inhibiting IL-10 release” value was more than 5 µM. The same compound registered a Kd in the experiment on E. coli O111:B4 LPS of 2.02 µM. Besides, the “MBC … against P. aeruginosa” value in [3] is 5 to 10 µM. Further, in [4], the “MBC (complete killing) against E. coli” value was more than 20 µM. Besides, the “concentration inhibiting TNF-α release” value in experiment [5] was more than 5 µM. Moreover, the “macrophage activation (TNF-α) by peptide-treated P. aeruginosa compared to viable untreated bacteria” value in experiment [1] is “no significant reduction in macrophage activation”.
As to “chicken cathelicidin 2 (LVQRGRFGRFLRKIRRFRPKVTITIQGSARFG; Cathelicidin-2; UniProt Q2IAL7 123-154, looked up) [CATH-2, chicken cathelicidin 2, control peptide for which silent killing was originally described]”, in [1], the “macrophage activation (TNF-α) by peptide-treated P. aeruginosa compared to viable untreated bacteria” value is “significantly reduced immune response”.
With polymyxin B [PMB], the “inhibition of LPS-induced nitric oxide production (in words)” value in [6], in experiment [8] and in experiment [7] was “dose-dependently active” in each case. Also, the “inhibition of IL-10 release (in words)” value in [2] is on record as “slightly less activity compared to CPA”. The same compound came in with a Kd with E. coli O111:B4 LPS of 2.5 µM. In experiment [5], the “inhibition of TNF-α release (in words)” value was “slightly less activity compared to CPA”.

Source of the values: PMC10012172, “Chimeric Peptidomimetic Antibiotic Efficiently Neutralizes Lipopolysaccharides (LPS) and Bacteria-Induced Activation of RAW Macrophages” (ACS Infectious Diseases, 2023).
